This is an account of results in PubChem BioAssay AID330 (DTP/NCI, 2004).

The subject of the experiment is P388 leukemia ip, CD2F1 mice, survival T/C. Kind of experiment: NCI In Vivo Anticancer Drug Screen. Data for tumor model P388 Leukemia (intraperitoneal) in CD2F1 (CDF1) mice. The settings on record: endpoint: median survival time, higher = longer survival. An outline of the steps: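 Mice carrying the transplanted tumor received test compound or vehicle. Survival was recorded in each group, and the value is the treated-group measurement divided by that of the vehicle-treated control group.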

[1] abbreviates: dose: 50.0 mg/kg/injection, schedule: Q01DX005 (ip), vehicle: Klucel (hydroxypropylcellulose) (HPC).
Setting [2] is: dose: 100.0 mg/kg/injection, schedule: Q01DX005 (ip), vehicle: Klucel (hydroxypropylcellulose) (HPC).
The mark [3] stands for this setting: dose: 200.0 mg/kg/injection, schedule: Q01DX005 (ip), vehicle: Klucel (hydroxypropylcellulose) (HPC).
Setting [4] is: dose: 50.0 mg/kg/injection, schedule: Q01DX005 (ip), vehicle: saline with Tween-80.
The mark [5] stands for this setting: dose: 100.0 mg/kg/injection, schedule: Q01DX005 (ip), vehicle: saline with Tween-80.
The mark [6] stands for this setting: dose: 200.0 mg/kg/injection, schedule: Q01DX005 (ip), vehicle: saline with Tween-80.

“And” between values parts separate entries of the source, which are not always exact repeats. Equal values may be shown once. Inconclusive results and toxic doses are left out.

As for `CCN(CC)C(=O)c1ccccc1-c1ccccc1C(=O)N(CC)CC`, the T/C runs as follows: (dose: 100.0 mg/kg/injection, schedule: Q04DX003 (ip), vehicle: saline) 101 % of control; (dose: 200.0 mg/kg/injection, schedule: Q04DX003 (ip), vehicle: saline) 98 % of control; (dose: 400.0 mg/kg/injection, schedule: Q04DX003 (ip), vehicle: saline) 95 % of control.
Consider `COc1cc2c(c(OC)c1OC)-c1ccc(SC)c(=O)cc1[C@@H](NC(=O)NCCCl)CC2`, for which the T/C is, setting by setting: (dose: 1.5 mg/kg/injection, schedule: Q01DX009 (ip), vehicle: water) 110 % of control; (dose: 6.0 mg/kg/injection, schedule: Q01DX009 (ip), vehicle: water) 150 % of control; (dose: 12.0 mg/kg/injection, schedule: Q01DX009 (ip), vehicle: water) 155 % of control; (dose: 13.5 mg/kg/injection, schedule: Q01DX009 (ip), vehicle: water) 150 % of control and 163 % of control.
For `CCCCCCN(CCCCCC)P(=O)(N1CC1)N1CC1`, the T/C by setting is: (dose: 12.5 mg/kg/injection, schedule: Q01DX009 (ip), vehicle: saline) 118 % of control; (dose: 25.0 mg/kg/injection, schedule: Q04DX003 (ip), vehicle: saline with Tween-80) 113 % of control; (dose: 100.0 mg/kg/injection, schedule: Q04DX003 (ip), vehicle: saline with Tween-80) 100 % of control.
Regarding `COC(=O)C1CC(OC(C)=O)C(O)C(O)C1OC(C)=O.[O]=[Os]=[O]` (stereo unspecified), the T/C (dose: 200.0 mg/kg/injection, schedule: Q01DX001 (ip), vehicle: saline) was 123 % of control.
For `O=c1[nH]c2ccccc2c(=O)n1-c1ccccc1`, the T/C by setting is: (dose: 100.0 mg/kg/injection, schedule: Q01DX009 (ip), vehicle: saline with Tween-80) 101 % of control and 109 % of control; (dose: 200.0 mg/kg/injection, schedule: Q01DX009 (ip), vehicle: saline with Tween-80) 96 % of control; (dose: 400.0 mg/kg/injection, schedule: Q01DX009 (ip), vehicle: saline with Tween-80) 113 % of control and 95 % of control.
`COc1c(NC(C)=O)c2ccccc2c2ccccc12`: the T/C under setting [1] was 106 % of control, the T/C under setting [2] is 109 % of control and the T/C under setting [3] is 97 % of control.
With `CCN(CC)CCC(CNc1c(C)cnc2cc(Cl)ccc12)c1ccc(OC)cc1` (stereo unspecified), the T/C is, setting by setting: under setting [4], 105 % of control; under setting [5], 105 % of control; under setting [6], 105 % of control.
`CN1C(=O)C(=C2C=C(c3ccccc3)C(C#N)(c3ccccc3)C(c3ccccc3)=C2)C(=O)N(C)C1=O` (stereo unspecified): the T/C under setting [1] is 106 % of control, the T/C under setting [2] was 107 % of control and the T/C under setting [3] is 101 % of control.
For `c1ccc(C2Nc3ccccc3CO2)cc1` (stereo unspecified), the T/C runs as follows: (dose: 60.0 mg/kg/injection, schedule: Q01DX005 (ip), vehicle: Klucel (hydroxypropylcellulose) (HPC)) 101 % of control; (dose: 120.0 mg/kg/injection, schedule: Q01DX005 (ip), vehicle: Klucel (hydroxypropylcellulose) (HPC)) 99 % of control; (dose: 240.0 mg/kg/injection, schedule: Q01DX005 (ip), vehicle: Klucel (hydroxypropylcellulose) (HPC)) 99 % of control.
For the compound `CC(=O)Nc1nnc(-c2coc3ccccc3c2=O)s1`, the T/C was 91 % of control (dose: 60.0 mg/kg/injection, schedule: Q01DX005 (ip), vehicle: saline with Tween-80) and 91 % of control (dose: 120.0 mg/kg/injection, schedule: Q01DX005 (ip), vehicle: saline with Tween-80).
Take `S=C(S)N1CCCNCC1` (tested in a mixture with another compound): the T/C was 101 % of control and 89 % of control (dose: 12.5 mg/kg/injection, schedule: Q01DX009 (ip), vehicle: saline with Tween-80); 92 % of control and 97 % of control (dose: 25.0 mg/kg/injection, schedule: Q01DX009 (ip), vehicle: saline with Tween-80); 86 % of control and 97 % of control (dose: 50.0 mg/kg/injection, schedule: Q01DX009 (ip), vehicle: saline with Tween-80).
Regarding `CCN(CC)CCCC(C)Sc1ccnc2cc(Cl)ccc12` (stereo unspecified), the T/C under setting [4] is 95 % of control, the T/C under setting [5] was 101 % of control and the T/C under setting [6] was 106 % of control.
Turning to `CCOC(=O)/C=C1/C(=O)OC2C1OC1OC(C)(C)OC12` (stereo unspecified), the T/C was 98 % of control (dose: 3.75 mg/kg/injection, schedule: Q01DX005 (ip), vehicle: saline with Tween-80) and 97 % of control (dose: 7.5 mg/kg/injection, schedule: Q01DX005 (ip), vehicle: saline with Tween-80).
On to `Cn1c(=O)c2c(Nc3ccccc3)ncnc2n(C)c1=O`, for which the T/C was 87 % of control (dose: 35.0 mg/kg/injection, schedule: Q01DX005 (ip), vehicle: saline with Tween-80) and 87 % of control (dose: 70.0 mg/kg/injection, schedule: Q01DX005 (ip), vehicle: saline with Tween-80).
On to `Cc1nn(N)c2[nH]c(Cl)cc(=O)c12`, for which the T/C under setting [4] was 97 % of control, the T/C under setting [5] was 109 % of control and the T/C under setting [6] is 116 % of control.
